Some test systems named below: MOLT-4 leukemia; M14 melanoma; NCI-H226 lung; MALME-3M melanoma; SK-OV-3 ovarian; ACHN renal; NCI-H522 lung; NCI-H23 lung; MDA-MB-435; TK-10 renal.
Common to all, as to assay: growth of human tumour cells (NCI), 48 h

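The compound was tested at five concentrations on cells cultured in 96-well plates, with a 48-hour exposure period. Abbreviation: GI50, concentration required for 50% inhibition of growth. The concentration for full growth arrest is given as TGI.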 A value given as a limit tells only on which side of the number the result lay.

Take `NS(=O)(=O)c1ccc(-c2ccc3c(NC(=O)C4CC4)n[nH]c3c2)cc1`: the GI50 in the assay with MOLT-4 leukemia, in the assay with M14 melanoma, in the assay with NCI-H226 lung, with MALME-3M melanoma, in the assay with SK-OV-3 ovarian and in the assay on ACHN renal was above 25 µM in each case. The GI50 with NCI-H522 lung, in the assay on NCI-H23 lung, in the assay with MDA-MB-435 and with TK-10 renal was above 25 µM each time. In addition, the TGI in the assay with MOLT-4 leukemia, in the assay with M14 melanoma, in the assay on NCI-H226 lung, in the assay with MALME-3M melanoma, in the assay on SK-OV-3 ovarian and with ACHN renal was above 25 µM throughout. The TGI in the assay with NCI-H522 lung, with NCI-H23 lung, in the assay with MDA-MB-435 and with TK-10 renal was above 25 µM throughout.

As for `CC(C)c1ccc(-c2cc(-c3cn[nH]c3-c3ccccn3)ccn2)cc1`, the GI50 with MOLT-4 leukemia was 8.06 µM; in the assay on M14 melanoma, 14.4 µM; in the assay with NCI-H226 lung it was 12.1 µM; in the assay with MALME-3M melanoma, 8.83 µM; in the assay on SK-OV-3 ovarian it was above 23.4 µM; with ACHN renal, 18.5 µM. The GI50 was 6.82 µM with NCI-H522 lung, 11.7 µM in the assay with NCI-H23 lung, 9.42 µM with MDA-MB-435 and above 18.6 µM with TK-10 renal. The TGI with MOLT-4 leukemia was above 24.1 µM; with M14 melanoma, above 25 µM; with NCI-H226 lung it was above 25 µM; in the assay with MALME-3M melanoma it was above 25 µM; with SK-OV-3 ovarian, above 25 µM; with ACHN renal, above 25 µM. Also, the TGI in the assay on NCI-H522 lung, in the assay with NCI-H23 lung, in the assay on MDA-MB-435 and with TK-10 renal was above 25 µM in each case.

On to `C=CCCCCC/C=C\[C@@H](O)C#CC#C/C=C/CO`, for which the GI50 with MOLT-4 leukemia was 18.3 µM; with M14 melanoma it was above 100 µM; in the assay with NCI-H226 lung, 25.5 µM; in the assay with MALME-3M melanoma, above 100 µM; in the assay with SK-OV-3 ovarian, above 100 µM; with ACHN renal, above 100 µM. Further, the GI50 is 26 µM with NCI-H522 lung, 43.6 µM in the assay with NCI-H23 lung, 68.8 µM with MDA-MB-435 and above 100 µM with TK-10 renal. Moreover, the TGI in the assay with MOLT-4 leukemia is 43.8 µM; with M14 melanoma, above 100 µM; in the assay on NCI-H226 lung, 57.6 µM; with MALME-3M melanoma, above 100 µM; with SK-OV-3 ovarian, above 100 µM; with ACHN renal, above 100 µM. Besides, the TGI in the assay on NCI-H522 lung was 98.7 µM; in the assay with NCI-H23 lung, above 100 µM; in the assay on MDA-MB-435 it was above 100 µM; in the assay with TK-10 renal it was above 100 µM.

The values are drawn from PubChem BioAssay (NCI).
